Measurements: paper PMC11240139, “Exploring the antitumor potential of novel quinoline derivatives via tubulin polymerization inhibition in breast cancer; design, synthesis and molecular docking” (RSC Advances, 2024)

What was measured:
CCRF-CEM (leukemia) = test: NCI-60 SRB cytotoxicity screen; type: cell-based; conditions: Homo sapiens, single dose 10 μM, read-out: growth inhibition (GI%)
K-562 (leukemia) = test: NCI-60 SRB cytotoxicity screen; type: cell-based; conditions: Homo sapiens; K-652 [sic], single dose 10 μM; read-out: growth inhibition (GI%)
RPMI-8226 (leukemia) = test: NCI-60 SRB cytotoxicity screen; type: cell-based; conditions: Homo sapiens; RPMI-8226, single dose 10 μM; read-out: growth inhibition (GI%)
SR (leukemia) = test: NCI-60 SRB cytotoxicity screen; type: cell-based; conditions: single dose 10 μM, read-out: growth inhibition (GI%)
[1] = tested on: A549/ATCC (non-small cell lung cancer); test: NCI-60 SRB cytotoxicity screen; type: cell-based; conditions: Homo sapiens, single dose 10 μM, read-out: growth inhibition (GI%)
[2] = tested on: EKVX (non-small cell lung cancer); test: NCI-60 SRB cytotoxicity screen; type: cell-based; conditions: Homo sapiens, single dose 10 μM, read-out: growth inhibition (GI%)
[3] = tested on: HOP-62 (non-small cell lung cancer); test: NCI-60 SRB cytotoxicity screen; type: cell-based; conditions: Homo sapiens; HOP-62, single dose 10 μM; read-out: growth inhibition (GI%)
[4] = tested on: NCI-H522 (non-small cell lung cancer); test: NCI-60 SRB cytotoxicity screen; type: cell-based; conditions: Homo sapiens; NCI-H522, single dose 10 μM; read-out: growth inhibition (GI%)
COLO 205 (colon cancer) = test: NCI-60 SRB cytotoxicity screen; type: cell-based; conditions: Homo sapiens; COLO 205, single dose 10 μM; read-out: growth inhibition (GI%)
HCT-15 (colon cancer) = test: NCI-60 SRB cytotoxicity screen; type: cell-based; conditions: Homo sapiens; HCT-15, single dose 10 μM; read-out: growth inhibition (GI%)
KM12 (colon cancer) = test: NCI-60 SRB cytotoxicity screen; type: cell-based; conditions: Homo sapiens; KM12, single dose 10 μM; read-out: growth inhibition (GI%)
SF-268 (CNS cancer) = test: NCI-60 SRB cytotoxicity screen; type: cell-based; conditions: Homo sapiens; SF-268, single dose 10 μM; read-out: growth inhibition (GI%)
SF-295 (CNS cancer) = test: NCI-60 SRB cytotoxicity screen; type: cell-based; conditions: Homo sapiens; SF-295, single dose 10 μM; read-out: growth inhibition (GI%)
SNB-75 (CNS cancer) = test: NCI-60 SRB cytotoxicity screen; type: cell-based; conditions: for inhibition at 10 µM: Homo sapiens, SNB-75, SNB-75, single dose 10 μM, read-out: growth inhibition (GI%)
LOX IMVI (melanoma) = test: NCI-60 SRB cytotoxicity screen; type: cell-based; conditions: Homo sapiens, single dose 10 μM, read-out: growth inhibition (GI%)
MALME-3M (melanoma) = test: NCI-60 SRB cytotoxicity screen; type: cell-based; conditions: Homo sapiens, single dose 10 μM, read-out: growth inhibition (GI%)
SK-MEL-2 (melanoma) = test: NCI-60 SRB cytotoxicity screen; type: cell-based; conditions: Homo sapiens; SK-MEL-2, single dose 10 μM; read-out: growth inhibition (GI%)
UACC-257 (melanoma) = test: NCI-60 SRB cytotoxicity screen; type: cell-based; conditions: Homo sapiens; UACC-257, single dose 10 μM; read-out: growth inhibition (GI%)
UACC-62 (melanoma) = test: NCI-60 SRB cytotoxicity screen; type: cell-based; conditions: Homo sapiens; UACC-62, single dose 10 μM; read-out: growth inhibition (GI%)
IGROV1 (ovarian cancer) = test: NCI-60 SRB cytotoxicity screen; type: cell-based; conditions: Homo sapiens, IGROV-1; IGROV1, single dose 10 μM; read-out: growth inhibition (GI%)
OVCAR-5 (ovarian cancer) = test: NCI-60 SRB cytotoxicity screen; type: cell-based; conditions: Homo sapiens; OVCAR-5, single dose 10 μM; read-out: growth inhibition (GI%)
OVCAR-8 (ovarian cancer) = test: NCI-60 SRB cytotoxicity screen; type: cell-based; conditions: Homo sapiens; OVCAR-8, single dose 10 μM; read-out: growth inhibition (GI%)
[5] = tested on: NCI/ADR-RES (ovarian cancer); test: NCI-60 SRB cytotoxicity screen; type: cell-based; conditions: Homo sapiens, single dose 10 μM, read-out: growth inhibition (GI%)
SK-OV-3 (ovarian cancer) = test: NCI-60 SRB cytotoxicity screen; type: cell-based; conditions: Homo sapiens; SK-OV-3, single dose 10 μM; read-out: growth inhibition (GI%)
ACHN (renal cancer) = test: NCI-60 SRB cytotoxicity screen; type: cell-based; conditions: Homo sapiens, single dose 10 μM, read-out: growth inhibition (GI%)
RXF 393 (renal cancer) = test: NCI-60 SRB cytotoxicity screen; type: cell-based; conditions: Homo sapiens; RXF 393, single dose 10 μM; read-out: growth inhibition (GI%)
DU-145 (prostate cancer) = test: NCI-60 SRB cytotoxicity screen; type: cell-based; conditions: Homo sapiens; DU-145, single dose 10 μM; read-out: growth inhibition (GI%)
HS 578T (breast cancer) = test: NCI-60 SRB cytotoxicity screen; type: cell-based; conditions: Homo sapiens, single dose 10 μM, read-out: growth inhibition (GI%)
BT-549 (breast cancer) = test: NCI-60 SRB cytotoxicity screen; type: cell-based; conditions: Homo sapiens; BT-549, single dose 10 μM; read-out: growth inhibition (GI%)
T-47D (breast cancer) = test: NCI-60 SRB cytotoxicity screen; type: cell-based; conditions: Homo sapiens, T47D, single dose 10 μM, read-out: growth inhibition (GI%)

Compound | inhibition at 10 µM (CCRF-CEM (leukemia)) | inhibition at 10 µM (K-562 (leukemia)) | inhibition at 10 µM (RPMI-8226 (leukemia)) | inhibition at 10 µM (SR (leukemia)) | inhibition at 10 µM [1] | inhibition at 10 µM [2] | inhibition at 10 µM [3] | inhibition at 10 µM [4] | inhibition at 10 µM (COLO 205 (colon cancer)) | inhibition at 10 µM (HCT-15 (colon cancer)) | inhibition at 10 µM (KM12 (colon cancer)) | inhibition at 10 µM (SF-268 (CNS cancer)) | inhibition at 10 µM (SF-295 (CNS cancer)) | inhibition at 10 µM (SNB-75 (CNS cancer)) | inhibition at 10 µM (LOX IMVI (melanoma)) | inhibition at 10 µM (MALME-3M (melanoma)) | inhibition at 10 µM (SK-MEL-2 (melanoma)) | inhibition at 10 µM (UACC-257 (melanoma)) | inhibition at 10 µM (UACC-62 (melanoma)) | inhibition at 10 µM (IGROV1 (ovarian cancer)) | also measured
CCc1cccc2cc(-c3cc(-c4ccc(OC)cc4)[nH]c(=O)c3C#N)c(Cl)nc12 [Compound 4a, 4-(2-Chloro-8-ethylquinolin-3-yl)-6-(4-methoxyphenyl)-2-oxo-1,2-dihydropyridine-3-carbonitrile] | < 10% | 19.9% | < 10% | < 10% | < 10% | 12.3% | < 10% | 11.9% | < 10% | < 10% | < 10% | 21.4% | 16.7% | 54.7% | < 10% | < 10% | < 10% | < 10% | < 10% | < 10% | growth inhibition (GI%) (SNB-75 (CNS cancer); SNB-75, single dose 10 μM): 45.69%; inhibition at 10 µM (OVCAR-5 (ovarian cancer)): < 10%; inhibition at 10 µM (OVCAR-8 (ovarian cancer)): < 10%; inhibition at 10 µM [5]: < 10%; inhibition at 10 µM (SK-OV-3 (ovarian cancer)): < 10%; inhibition at 10 µM (ACHN (renal cancer)): < 10%; inhibition at 10 µM (RXF 393 (renal cancer)): < 10%; inhibition at 10 µM (DU-145 (prostate cancer)): < 10%; inhibition at 10 µM (HS 578T (breast cancer)): 14.9%; inhibition at 10 µM (BT-549 (breast cancer)): 15.3%; inhibition at 10 µM (T-47D (breast cancer)): 17.1%; melting point: 270 to 272 °C
CCc1cccc2cc(-c3cc(-c4ccc(OC)c(OC)c4)[nH]c(=S)c3C#N)c(Cl)nc12 [Compound 5b, 4-(2-Chloro-8-ethylquinolin-3-yl)-6-(3,4-dimethoxyphenyl)-2-thioxo-1,2-dihydropyridine-3-carbonitrile] | 28.8% | 28% | 29.2% | < 10% | 19.7% | 23.9% | < 10% | < 10% | < 10% | 12.2% | 19.9% | 32.2% | 16.5% | 10.8% | < 10% | < 10% | < 10% | < 10% | 19.1% | < 10% | inhibition at 10 µM (OVCAR-5 (ovarian cancer)): < 10%; inhibition at 10 µM (OVCAR-8 (ovarian cancer)): 31.5%; inhibition at 10 µM [5]: 24.9%; inhibition at 10 µM (SK-OV-3 (ovarian cancer)): < 10%; inhibition at 10 µM (ACHN (renal cancer)): 15.7%; inhibition at 10 µM (RXF 393 (renal cancer)): 24.6%; inhibition at 10 µM (DU-145 (prostate cancer)): 20.2%; inhibition at 10 µM (HS 578T (breast cancer)): 23.1%; inhibition at 10 µM (BT-549 (breast cancer)): 28.2%; inhibition at 10 µM (T-47D (breast cancer)): 41.1%; melting point: 280 to 282 °C
CCc1cccc2cc(C=CC(=O)c3ccc(F)cc3)c(Cl)nc12 [Compound 3d, 3-(2-Chloro-8-ethylquinolin-3-yl)-1-(4-fluorophenyl)prop-2-en-1-one] | < 10% | < 10% | < 10% | < 10% | < 10% | < 10% | < 10% | < 10% | < 10% | < 10% | < 10% | < 10% | < 10% | < 10% | < 10% | < 10% | < 10% | < 10% | < 10% | < 10% | inhibition at 10 µM (OVCAR-5 (ovarian cancer)): < 10%; inhibition at 10 µM (OVCAR-8 (ovarian cancer)): < 10%; inhibition at 10 µM [5]: < 10%; inhibition at 10 µM (SK-OV-3 (ovarian cancer)): < 10%; inhibition at 10 µM (ACHN (renal cancer)): < 10%; inhibition at 10 µM (RXF 393 (renal cancer)): < 10%; inhibition at 10 µM (DU-145 (prostate cancer)): < 10%; inhibition at 10 µM (HS 578T (breast cancer)): < 10%; inhibition at 10 µM (BT-549 (breast cancer)): < 10%; inhibition at 10 µM (T-47D (breast cancer)): < 10%; melting point: 215 to 217 °C
